Test results as given in patent US6541508B2, “Taxane prodrugs” (Nobex Corporation, priority 1999, dated 2003).
Read-outs that look alike come from different tables or passages of the source.

Columns and labels:
[1] = system: HT-1080/DR4 doxorubicin selected MDR (MRP/LRP phenotype) fibrosarcoma cell line; test: Cell growth inhibition, SRB assay, HT-1080-DR4; type: cell-based, human; settings: for IC50: 72-96 h, read-out: IC50 nM (±S.E.) HT-1080-DR4; for Resistance ratio (IC50 resistant cell line/IC50 parental line): MRP/LRP expressing HT1080/DR4 vs HT-1080
Protocol: (§1) Cell lines were propagated as monolayers in RPMI-1640 containing 5% FCS, 5% NuSerum IV, 20 mM HEPES, 2 mM L-glutamine at 37° C. in a 5% CO2 humidified atmosphere.
(§2) Paclitaxel was solubilized in 100% DMSO. TX-001 and 002 were solubilized in sterile H2O acidified with 10% 1 N HCl. For the first experiment, 4.0 mM stocks of TX-001 and 002 were prepared. Solutions of TX-001 and TX-002 contained clear needle-like and cast-like precipitates and were fairly viscous (Experiment 1). For the second experiment (Experiment 2), less concentrated stock solutions (0.4 mM) of each compound were prepared in sterile H2O acidified with 10% 1 N HCl. The same type of precipitates were noted, however neither solution was viscous. All compounds were further diluted in RPMI-1640 containing 10 mM HEPES.
Assessment of cell growth inhibition was determined in 96 well microtiter plates according to the method of Skehan et al., “New Colorimetric Cytotoxicity Assay for Anticancer-Drug Screening, Articles 82(13):1107-1112 (1990). Briefly, cells were plated with 400-1800 cells/well in 96 well plates and incubated at 37° C. 15-18 hr prior to drug addition to allow for cell attachment. Each cell line was exposed to 12 concentrations of compound (a 6 log range), 5 replicate data points per compound concentration. […] Assays were terminated with 100 μl of ice-cold 50% TCA. After 1 hr at 4° C., plates were washed 5 times with tap water to remove TCA, low-molecular-weight metabolites and serum proteins. 50 μl of 0.4% sulforhodamine B (SRB) was added to each well. Following a five minute incubation at room temperature, plates were rinsed 5 times with 0.1% acetic acid and air dried. Bound dye was solubilized with 10 mM Tris Base (pH 10.5) for 5 min on a gyratory shaker. Optical density was measured at 570 nm.
Data were fit with the Sigmoid-Emax concentration-effect model (N. H. G. Holford and L. B. Scheiner, “Understanding the dose-effect relationship: Clinical applications of pharmacokinetic-pharmacodynamic models,” Clin. Pharmacokin. 6:429-453 (1981)) with nonlinear regression, weighted by the reciprocal of the square of the predicted response.

[2] = system: A121 ovarian carcinoma cell line; test: Cell growth inhibition, sulforhodamine B (SRB) assay, A121; type: cell-based, human; settings: 72-96 h, read-out: IC50 nM (±S.E.) A121
Protocol: as §1, §2
(§3) Assessment of cell growth inhibition was determined in 96 well microtiter plates according to the method of Skehan et al., “New Colorimetric Cytotoxicity Assay for Anticancer-Drug Screening, Articles 82(13):1107-1112 (1990). Briefly, cells were plated with 400-1800 cells/well in 96 well plates and incubated at 37° C. 15-18 hr prior to drug addition to allow for cell attachment. Each cell line was exposed to 12 concentrations of compound (a 6 log range), 5 replicate data points per compound concentration. […] Assays were terminated with 100 μl of ice-cold 50% TCA. […] Optical density was measured at 570 nm. […]

[3] = system: HT-1080 fibrosarcoma cell line; test: Cell growth inhibition, SRB assay, HT-1080; type: cell-based, human; settings: 72-96 h, read-out: IC50 nM (±S.E.) HT-1080
Protocol: as §1, §2, §3

[4] = system: MDA435/LCC6-WT breast carcinoma cell line; test: Cell growth inhibition, SRB assay, LCC6-WT; type: cell-based, human; settings: read-out: IC50 nM (±S.E.) LCC6-WT
Protocol: as §1, §2
Assessment of cell growth inhibition was determined in 96 well microtiter plates according to the method of Skehan et al., “New Colorimetric Cytotoxicity Assay for Anticancer-Drug Screening, Articles 82(13):1107-1112 (1990). Briefly, cells were plated with 400-1800 cells/well in 96 well plates and incubated at 37° C. 15-18 hr prior to drug addition to allow for cell attachment. Each cell line was exposed to 12 concentrations of compound (a 6 log range), 5 replicate data points per compound concentration. […] Assays were terminated with 100 μl of ice-cold 50% TCA. After 1 hr at 4° C., plates were washed 5 times with tap water to remove TCA, low-molecular-weight metabolites and serum proteins. 50 μl of 0.4% sulforhodamine B (SRB) was added to each well. Following a five minute incubation at room temperature, plates were rinsed 5 times with 0.1% acetic acid and air dried. Bound dye was solubilized with 10 mM Tris Base (pH 10.5) for 5 min on a gyratory shaker. Optical density was measured at 570 nm. […]

[5] = Stability of trifluoroacetate product fraction solutions on storage; type: physicochemical; settings: preparative HPLC fraction solutions, initially 98.8% average purity; 8° C. for 16 days; analytical HPLC
[6] = system: LCC6-MDR1 Pgp transfected breast carcinoma cell line; test: Cell growth inhibition, SRB assay, LCC6-MDR; settings: LCC6-MDR1 variant line overexpressing Pgp vs LCC6-WT
Protocol: as §1, §2, §3

[7] = system: paclitaxel-resistant cells; settings: cited from earlier work
tubulin = settings: cited from earlier work
[8] = Experiment 1, TX-001/TX-002 from 4.0 mM stocks
[9] = Experiment 2, TX-001/TX-002 from 0.4 mM stocks

For “2′-Succinamidyl-PEG2-amine-paclitaxel Acetate [Compound 4]”, the IC50 [1, 8] was 8.9 ± 0.4 nM, the IC50 [1, 9] was 36 ± 1.5 nM and the IC50 [2, 8] was 13 ± 0.5 nM. For the same molecule, the IC50 [2, 9] was 37 ± 1.2 nM, the IC50 [3, 8] was 4.5 ± 0.4 nM and the IC50 [3, 9] was 19 ± 0.7 nM. For the same molecule, the IC50 ([4]; 4.0 mM stock solutions stored at 4° C. for 7 days) was 2.7 ± 0.4 nM, the IC50 ([4]; Experiment 1, TX-001/TX-002 from 4.0 mM stocks, 72-96 h) was 4.9 ± 0.5 nM and the IC50 ([4]; Experiment 2, TX-001/TX-002 from 0.4 mM stocks, 72-96 h) was 13 ± 0.5 nM.

With “2′-Succinamidyl-PEG2-amine-paclitaxel Trifluoroacetate [Compound 3]” the “average purity after storage” value [5] was 97.4%.

In the case of `CC(=O)O.CC(=O)OC1C(=O)C2(C)C(O)CC3OCC3(OC(C)=O)C2C(OC(=O)c2ccccc2)C2(O)CC(OC(=O)C(OC(=O)CCCC(=O)NCCOCCOCCN)C(NC(=O)c3ccccc3)c3ccccc3)C(C)=C1C2(C)C` (stereo not shown) [Compound 5, 2′-Glutaramidyl-PEG2-amine-paclitaxel acetate], the “Resistance ratio (IC50 resistant cell line/IC50 parental line)” value (from here on “Resistance ratio”) [1] is reported as 1.1-1.5 fold and the “Resistance ratio” value [6] is reported as 47-60 fold.

In the case of `CC(=O)O[C@@]12CO[C@@H]1C[C@H](O)[C@@]1(C)C(=O)[C@H](O)C3=C(C)[C@@H](OC(=O)[C@H](O)[C@@H](NC(=O)OC(C)(C)C)c4ccccc4)C[C@@](O)([C@@H](OC(=O)c4ccccc4)[C@H]21)C3(C)C` [Docetaxel, docetaxel], the “activity relative to paclitaxel” value [7] is listed as “about five times as active as paclitaxel”.

In the case of `CC(=O)O[C@H]1C(=O)[C@@]2(C)[C@H]([C@H](OC(=O)c3ccccc3)[C@]3(O)C[C@H](OC(=O)[C@H](O)[C@@H](NC(=O)c4ccccc4)c4ccccc4)C(C)=C1C3(C)C)[C@]1(OC(C)=O)CO[C@@H]1C[C@@H]2O` [Paclitaxel, reference compound], the “Resistance ratio” value [1] is reported as 1.1-1.4 fold and the “Resistance ratio” value [6] is reported as 65-92 fold.

In the case of A-nor-paclitaxel, the “tubulin-assembly activity relative to paclitaxel” value (tubulin) is given as “only three times less than that of paclitaxel”.
